In brackets after ≈: the same amount, converted by molar mass.
Tests used:
Serratia marcescens = assay: Antibacterial activity expressed as MIC value was determined on Serratia marcescens A-20019 organism; format: functional
Staphylococcus aureus [1] = assay: Antibacterial activity expressed as MIC value was determined on Staphylococcus aureusA-22058 organism; format: functional, organism-based
Providencia stuartii [2] = assay: Antibacterial activity expressed as MIC value was determined on Proteus stuartii A-21210 organism; format: functional
Pseudomonas aeruginosa [3] = assay: Antibacterial activity expressed as MIC value was determined on Pseudomonas aeruginosa A-21509 organism; format: functional
Escherichia coli [4] = assay: (§1) Antibacterial activity expressed as MIC value was determined on Escherichia coli A-22356 organism; format: functional
Staphylococcus aureus [5] = assay: Antibacterial activity expressed as MIC value was determined on Staphylococcus aureus A-22231 organism; format: functional
Escherichia coli [6] = assay: Antibacterial activity expressed as MIC value was determined on Escherichia coli A-20665 organism; format: functional
Klebsiella pneumoniae = assay: Antibacterial activity expressed as MIC value was determined on Klebsiella pneumonia A-20468 organism; format: functional
Enterobacter cloacae [7] = assay: Antibacterial activity expressed as MIC value was determined on Enterobacter cloacae A-21136 organism; format: functional
Providencia rettgeri [8] = assay: (§2) Antibacterial activity expressed as MIC value was determined on Proteus rettgeri A-9637 organism; format: functional
Pseudomonas aeruginosa [9] = assay: Antibacterial activity expressed as MIC value was determined on Pseudomonas aeruginosa A-20717 organism; format: functional
Staphylococcus aureus [10] = assay: Antibacterial activity expressed as MIC value was determined on Staphylococcus aureus A-20240 organism; format: functional
Providencia rettgeri [11] = assay: Antibacterial activity expressed as MIC value was determined on Proteus rettgeri A-21207 organism; format: functional
Enterobacter cloacae [12] = assay: Antibacterial activity expressed as MIC value was determined on Enterobacter cloacae A-21006 organism; format: functional
Staphylococcus aureus [13] = assay: Antibacterial activity expressed as MIC value was determined on Staphylococcus aureus A-21978 organism; format: functional
Escherichia coli [14] = assay: Antibacterial activity expressed as MIC value was determined on Escherichia coli A-20732 organism; format: functional
Providencia stuartii [15] = assay: Antibacterial activity expressed as MIC value was determined on Proteus stuartii A-20894 organism; format: functional
Escherichia coli [16] = assay: Antibacterial activity expressed as MIC value was determined on Escherichia coli A-9632 organism; format: functional
Staphylococcus aureus [17] = assay: Antibacterial activity expressed as MIC value was determined on Staphylococcus aureus A-9537 organism; format: functional
Pseudomonas aeruginosa [18] = assay: Antibacterial activity expressed as MIC value was determined on Pseudomonas aeruginosa A-22233 organism; format: functional
Pseudomonas aeruginosa [19] = assay: Antibacterial activity expressed as MIC value was determined on Pseudomonas aeruginosa A-20897 organism; format: functional
Staphylococcus aureus [20] = assay: Antibacterial activity expressed as MIC value was determined on Staphylococcus aureus A-22210 organism; format: functional
Pseudomonas aeruginosa [21] = assay: Antibacterial activity expressed as MIC value was determined on Pseudomonas aeruginosa A-21294 organism; format: functional
Enterobacter cloacae [22] = assay: Antibacterial activity expressed as MIC value was determined on Enterobacter cloacae A-9656 organism; format: functional
Enterobacter cloacae [23] = assay: Antibacterial activity expressed as MIC value was determined on Enterobacter cloacae A-20364 organism; format: functional
Proteus mirabilis = assay: Antibacterial activity expressed as MIC value was determined on Proteus mirabilis A-9900 organism; format: functional
Pseudomonas aeruginosa [24] = assay: Antibacterial activity expressed as MIC value was determined on Pseudomonas aeruginosa A-20653 organism; format: functional
Escherichia coli [25] = assay: Antibacterial activity expressed as MIC value was determined on Escherichia coli A-20697 organism; format: functional
Pseudomonas aeruginosa [26] = assay: Antibacterial activity expressed as MIC value was determined on Pseudomonas aeruginosa A-21508 organism; format: functional
Escherichia coli [27] = assay: Antibacterial activity expressed as MIC value was determined on Escherichia coli A-22045 organism; format: functional
Escherichia coli [28] = assay: Antibacterial activity expressed as MIC value was determined on Escherichia coli A-20683 organism; format: functional
Pseudomonas aeruginosa [29] = assay: Antibacterial activity expressed as MIC value was determined on Pseudomonas aeruginosa A-20601 organism; format: functional
Escherichia coli [30] = assay: Antibacterial activity expressed as MIC value was determined on Escherichia coli A-21218 organism; format: functional
Escherichia coli [31] = assay: Antibacterial activity expressed as MIC value was determined on Escherichia coli A-20895 organism; format: functional
Pseudomonas aeruginosa [32] = assay: Antibacterial activity expressed as MIC value was determined on Pseudomonas aeruginosa A-9834A organism; format: functional
Pseudomonas aeruginosa [33] = assay: Antibacterial activity expressed as MIC value was determined on Pseudomonas aeruginosa A-20741 organism; format: functional
Staphylococcus aureus [34] = assay: Antibacterial activity expressed as MIC value was determined on Staphylococcus aureus A-22058 organism; format: functional
Escherichia coli [35] = assay: as §1; format: functional; remark: listed apart in the source
Providencia rettgeri [36] = assay: as §2; format: functional; remark: listed apart in the source
Providencia rettgeri [37] = assay: ntibacterial activity expressed as MIC value was determined on Proteus rettgeri A-21207 organism; format: functional
Escherichia coli [38] = assay: Antibacterial activity expressed as MIC value was determined on Escherichia coli A-20895; format: functional

Row | Compound | MIC (Serratia marcescens) [µg/mL] | MIC (Providencia stuartii [2]) [µg/mL] | MIC (Pseudomonas aeruginosa [3]) [µg/mL] | MIC (Staphylococcus aureus [5]) [µg/mL] | MIC (Escherichia coli [6]) [µg/mL] | MIC (Klebsiella pneumoniae) [µg/mL] | MIC (Enterobacter cloacae [7]) [µg/mL] | MIC (Pseudomonas aeruginosa [9]) [µg/mL] | MIC (Staphylococcus aureus [10]) [µg/mL] | MIC (Enterobacter cloacae [12]) [µg/mL] | MIC (Staphylococcus aureus [13]) [µg/mL] | MIC (Escherichia coli [14]) [µg/mL] | MIC (Providencia stuartii [15]) [µg/mL] | MIC (Escherichia coli [16]) [µg/mL] | MIC (Staphylococcus aureus [17]) [µg/mL] | MIC (Pseudomonas aeruginosa [18]) [µg/mL] | MIC (Pseudomonas aeruginosa [19]) [µg/mL] | MIC (Staphylococcus aureus [20]) [µg/mL] | MIC (Pseudomonas aeruginosa [21]) [µg/mL] | MIC (Enterobacter cloacae [22]) [µg/mL] | further results
1 | 2-{4,6-Diamino-3-[3-amino-6-(1-amino-ethyl)-tetrahydro-pyran-2-yloxy]-2-hydroxy-cyclohexyloxy}-5-methyl-4-methylamino-tetrahydro-pyran-3,5-diol; compound with 6-(2-carboxy-2-phenyl-acetylamino)-3,3-dimethyl-7-oxo-4-thia-1-aza-bicyclo[3.2.0]heptane-2-carbo | > 250 | > 250 | > 250 | 16 | > 250 | 125 | > 250 | > 250 | > 250 | 250 | > 250 | > 250 | > 250 | 250 | 16 | > 250 | > 250 | > 250 | > 250 | > 250 | MIC (Staphylococcus aureus [1]): 32 µg/mL; MIC (Escherichia coli [4]): 250 µg/mL; MIC (Providencia rettgeri [8]): 32 µg/mL; MIC (Providencia rettgeri [11]): > 250 µg/mL; MIC (Enterobacter cloacae [23]): 250 µg/mL; MIC (Proteus mirabilis): 250 µg/mL; MIC (Pseudomonas aeruginosa [24]): > 250 µg/mL; MIC (Escherichia coli [25]): 250 µg/mL; MIC (Pseudomonas aeruginosa [26]): > 250 µg/mL; MIC (Escherichia coli [27]): > 250 µg/mL; MIC (Escherichia coli [28]): > 250 µg/mL; MIC (Pseudomonas aeruginosa [29]): > 250 µg/mL; MIC (Escherichia coli [30]): 250 µg/mL; MIC (Escherichia coli [31]): > 250 µg/mL; MIC (Pseudomonas aeruginosa [32]): > 250 µg/mL; MIC (Pseudomonas aeruginosa [33]): > 250 µg/mL
2 | CC1(C)S[C@@H]2[C@H](NC(=O)C(C(=O)O)c3ccccc3)C(=O)N2[C@H]1C(=O)O (some centres not stated) [CARBENICILLIN] | 16 (≈ 42.3 µM) | 1 (≈ 2.64 µM) | > 125 | 2 (≈ 5.29 µM) | 8 (≈ 21.1 µM) | > 125 | > 125 | > 125 | 8 (≈ 21.1 µM) | > 125 | > 125 | > 125 | 8 (≈ 21.1 µM) | 8 (≈ 21.1 µM) | 1 (≈ 2.64 µM) | > 125 | > 125 | > 125 | > 125 | 32 (≈ 84.6 µM) | MIC (Staphylococcus aureus [34]): 4 µg/mL (≈ 10.6 µM); MIC (Escherichia coli [35]): 4 µg/mL (≈ 10.6 µM); MIC (Providencia rettgeri [36]): 0.5 µg/mL (≈ 1.32 µM); MIC (Enterobacter cloacae [23]): > 125 µg/mL; MIC (Proteus mirabilis): 0.5 µg/mL (≈ 1.32 µM); MIC (Pseudomonas aeruginosa [24]): 125 µg/mL (≈ 330 µM); MIC (Escherichia coli [25]): 32 µg/mL (≈ 84.6 µM); MIC (Providencia rettgeri [37]): 16 µg/mL (≈ 42.3 µM); MIC (Pseudomonas aeruginosa [26]): > 125 µg/mL; MIC (Escherichia coli [27]): 32 µg/mL (≈ 84.6 µM); MIC (Escherichia coli [28]): > 125 µg/mL; MIC (Pseudomonas aeruginosa [29]): 125 µg/mL (≈ 330 µM); MIC (Escherichia coli [30]): 32 µg/mL (≈ 84.6 µM); MIC (Pseudomonas aeruginosa [32]): 32 µg/mL (≈ 84.6 µM); MIC (Pseudomonas aeruginosa [33]): 125 µg/mL (≈ 330 µM); MIC (Escherichia coli [38]): 63 µg/mL (≈ 166 µM)
